Counter-ions that a name gives are not always drawn. Like-named read-outs stand apart in the source and are kept apart here. Each block holds one molecule with its values, some of them ahead of it.
Tests used:
[1] = system: Giardia lamblia trophozoites, WB strain (ATCC #30957); assay: 3H-thymidine incorporation drug sensitivity assay, Giardia lamblia WB strain (ATCC 30957); format: cell-based; settings: for IC50: Giardia duodenalis; for efficacy against Giardia lamblia (in words): qualitative statements on the results
Experimental: Giardia lamblia trophozoites were obtained from logarithmically growing stock cultures. Into the wells of a 96 well U-bottom tissue culture plate (Costar) was placed 100 μl of modified TYI-S-33 medium containing 2.5×10^4 trophozoites. The tissue culture plate was maintained in an anerobic environment by placing it inside a plastic box modified to allow nitrogen to be passed through the box via inlet and outlet tubing which could be clamped shut. Nitrogen was passed through the box for 2 minutes and the container was placed in a 37° C. incubator gassed with 5% CO2 in air.
Varying concentrations of ^3 H-thymidine (0.5, 1.0, 1.5 and 2.0 μCi/well) were added to wells containing 2.5×10^4 Giardia lamblia trophozoites at 2 hour intervals so that it might remain in contact with the trophozoites for 2 to 24 hours. After 24 hours of incubation, the cells were harvested with a multimash cell harvester by washing vigorously with ice-cold Hank's Balanced Salt Solution. Samples were collected on Whatman glass microfiber paper. the paper was air dried, samples were placed in 7 ml scintillation vials and the incorporation of ^3 H-thymidine was determined by liquid scintillation counting. Mean values were calculated from 5 replicates for each time point and concentration.
One hundred μl of modified TYI-S-33 medium containing 2.5×10^4trophozoites was placed into each well of a 96-well U-bottom plate. The plates were incubated under anaerobic conditions for 24 hours. After 24 hours, the compounds to be tested were prepared from the 2 mM stock solutions and 100 μl each solution was added to yield concentrations of 1, 10, 100 and 1000 μMin the wells. Ten μl of a 150 μCi/ml solution of ^3 H-thymidine (SA=10 Ci/mmole) in modified TYI-S-33 was added 6 hours after the addition of drug to yield a final concentration of 1.5 μCi/well. After an additional 18 hours of incubation the cells were harvested. Five replicates were run for each drug concentration and the mean values determined. Non-specific binding of the ^3 H-thymidine to the microfiber paper was determined through the use of control wells to which no organisms were added. The activities of compounds tested were determined by comparing the incorporation of ^ 3 H-thymidine in the wells to which the compounds were added to that of wells of drug free controls. The drug concentration required to inhibit 50% incorporation of ^3 H-thymidine (IC50) was determined (Chou, 1974).

[2] = system: Giardia lamblia Stock BRIS/83/HEPU/106; settings: Table IV; Stock BRIS/83/HEPU/106 (Boreham et al., 1984); read-out: IC50 determined by 3H-thymidine incorporation; cited from earlier work
[3] = system: Giardia lamblia Stock BRI/83/HEPU/136; settings: Table IV; Stock BRI/83/HEPU/136 (Boreham et al., 1984); read-out: IC50 determined by 3H-thymidine incorporation; cited from earlier work
[4] = system: Giardia lamblia Stock BRIS/82/HEPU/41; settings: Table IV; Stock BRIS/82/HEPU/41 (Boreham et al., 1984); read-out: IC50 determined by 3H-thymidine incorporation; cited from earlier work
[5] = system: Giardia lamblia Stock BRIS/83/HEPU/120; settings: Table IV; Stock BRIS/83/HEPU/120 (Boreham et al., 1984); read-out: IC50 determined by 3H-thymidine incorporation; cited from earlier work
[6] = ATCC30957, Table I, 50% inhibition of 3H-thymidine incorporation, WB strain, 24 h with drug, read-out: IC50, Giardia lamblia vs. para-amidines
[7] = ATCC30957, read-out: IC50, Giardia lamblia vs. para-amidines
[8] = ATCC30957, Table II, 50% inhibition of 3H-thymidine incorporation, WB strain, 24 h with drug, read-out: IC50, Giardia lamblia vs. meta-amidines
[9] = ATCC30957, Table III, 50% inhibition of 3H-thymidine incorporation, WB strain, 24 h with drug, read-out: IC50, Giardia lamblia vs. para-imidazolines
[10] = ATCC30957, Table IV, Stock WB (ATCC 30957), read-out: IC50 determined by 3H-thymidine incorporation

Structure (SMILES): N=C(N)c1ccc(NCCNc2ccc(C(=N)N)cc2N)c(N)c1 [Example 2]
IC50 [1, 6]: 744 µM

Structure (SMILES): N=C(N)c1ccc(OCCCOc2ccc(C(=N)N)cc2)cc1 [Example 3]
IC50 [1, 6]: 12.3 µM

Structure (SMILES): N=C(N)c1ccc(OCCCOc2ccc(C(=N)N)cc2N)c(N)c1 [Example 4]
IC50 [1, 6]: 15.4 µM

Structure (SMILES): COc1cc(C(=N)N)ccc1OCCCOc1ccc(C(=N)N)cc1OC [Example 5]
IC50 [1, 6]: 3.2 µM

Structure (SMILES): N=C(N)c1ccc(NCCCNc2ccc(C(=N)N)cc2[N+](=O)[O-])c([N+](=O)[O-])c1 [Example 7]
IC50 [1, 7]: 84.2 µM

Structure (SMILES): N=C(N)c1ccc(OCCCCOc2ccc(C(=N)N)cc2N)c(N)c1 [Example 9]
IC50 [1, 6]: 96.8 µM

Structure (SMILES): N=C(N)c1ccc(OCCCCOc2ccc(C(=N)N)cc2[N+](=O)[O-])c([N+](=O)[O-])c1 [Example 10]
IC50 [1, 7]: 53.2 µM

Structure (SMILES): COc1cc(C(=N)N)ccc1OCCCCOc1ccc(C(=N)N)cc1OC [Example 11]
IC50 [1, 6]: 68.8 µM

Structure (SMILES): N=C(N)c1ccc(OCCCCCOc2ccc(C(=N)N)cc2)cc1 [Example 15, reference compound]
IC50 [1, 7]: 76.5 µM
efficacy against Giardia lamblia (in words) [1]: moderately effective

Structure (SMILES): N=C(N)c1ccc(OCCCCCOc2ccc(C(=N)N)cc2[N+](=O)[O-])c([N+](=O)[O-])c1 [Example 17]
IC50 [1, 7]: 26.1 µM

Structure (SMILES): N=C(N)c1ccc(NCCCCCNc2ccc(C(=N)N)cc2N)c(N)c1 [Example 21]
IC50 [1, 6]: 48.6 µM

Structure (SMILES): N=C(N)c1ccc(NCCCCCNc2ccc(C(=N)N)cc2[N+](=O)[O-])c([N+](=O)[O-])c1 [Example 22]
IC50 [1, 7]: 29.9 µM

Structure (SMILES): N=C(N)c1ccc(OCCCCCCOc2ccc(C(=N)N)cc2)cc1 [Example 23]
IC50 [1, 6]: 34.3 µM

Structure (SMILES): N=C(N)c1cccc(OCCCOc2cccc(C(=N)N)c2)c1 [Example 27]
IC50 [1, 8]: 560 µM

Structure (SMILES): COc1cc(C2=NCCN2)ccc1OCCCOc1ccc(C2=NCCN2)cc1OC [Example 31]
IC50 [1, 9]: 25.4 µM
efficacy against Giardia lamblia (in words) [1]: slightly less efficacious than the amidine counterpart of Example 5

Structure (SMILES): c1cc(C2=NCCN2)ccc1OCCCCCOc1ccc(C2=NCCN2)cc1 [Example 34]
IC50 [1, 9]: 39.2 µM

Structure (SMILES): CN1CCN=C1c1ccc(OCCCCCOc2ccc(C3=NCCN3C)cc2)cc1 [Example 35]
IC50 [1, 9]: 373 µM

Structure (SMILES): COc1cc(C2=NCCN2)ccc1OCCCCCOc1ccc(C2=NCCN2)cc1OC [Example 36]
IC50 [1, 9]: 47.1 µM

Structure (SMILES): O=C1OCCN1N=Cc1ccc([N+](=O)[O-])o1 [Furazolidone]
IC50 [2]: 740 nM
IC50 [1, 10]: 1.9 µM
IC50 [3]: 430 nM
IC50 [4]: 600 nM
IC50 [5]: 2500 nM

Structure (SMILES): Cc1ncc([N+](=O)[O-])n1CCO [Metronidazole]
IC50 [2]: 910 nM
IC50 [1, 10]: 3.65 µM
IC50 [3]: 2210 nM
IC50 [4]: 2140 nM
IC50 [5]: 1080 nM

Structure (SMILES): CCN(CC)CCCC(C)Nc1c2ccc(Cl)cc2nc2ccc(OC)cc12 (centres unmarked) [Quinacrine . HCl]
IC50 [2]: 1180 nM
IC50 [1, 10]: 1.41 µM
IC50 [3]: 4020 nM
IC50 [4]: 1090 nM
IC50 [5]: 1590 nM

Next, values leading:

IC50 [1, 6]: 1180 µM
Structure (SMILES): N=C(N)c1ccc(OCCOc2ccc(C(=N)N)cc2N)c(N)c1 [Example 1]

IC50 [1, 6]: 68.2 µM
Structure (SMILES): N=C(N)c1ccc(NCCCNc2ccc(C(=N)N)cc2)cc1 [Example 6]

IC50 [1, 6]: 61.6 µM
Structure (SMILES): N=C(N)c1ccc(OCCCCOc2ccc(C(=N)N)cc2)cc1 [Example 8]

IC50 [1, 6]: 27.7 µM
Structure (SMILES): N=C(N)c1ccc(OCCCCOc2ccc(C(=N)N)cc2Cl)c(Cl)c1 [Example 12]

IC50 [1, 6]: 50.7 µM
Structure (SMILES): N=C(N)c1ccc(NCCCCNc2ccc(C(=N)N)cc2)cc1 [Example 13]

IC50 [1, 6]: 108 µM
Structure (SMILES): N=C(N)c1ccc(NCCCCNc2ccc(C(=N)N)cc2N)c(N)c1 [Example 14]

IC50 [1, 6]: 66.3 µM
Structure (SMILES): N=C(N)c1ccc(OCCCCCOc2ccc(C(=N)N)cc2N)c(N)c1 [Example 16]

IC50 [1, 6]: 24 µM
Structure (SMILES): COc1cc(C(=N)N)ccc1OCCCCCOc1ccc(C(=N)N)cc1OC [Example 18]

IC50 [1, 6]: 16.3 µM
Structure (SMILES): N=C(N)c1ccc(OCCCCCOc2ccc(C(=N)N)cc2Cl)c(Cl)c1 [Example 19]

IC50 [1, 6]: 40.6 µM
Structure (SMILES): N=C(N)c1ccc(NCCCCCNc2ccc(C(=N)N)cc2)cc1 [Example 20]

IC50 [1, 6]: 38.7 µM
Structure (SMILES): N=C(N)c1ccc(OCCCCCCOc2ccc(C(=N)N)cc2N)c(N)c1 [Example 24]

IC50 [1, 6]: 4.2 µM
Structure (SMILES): N=C(N)c1ccc(NCCCCCCNc2ccc(C(=N)N)cc2)cc1 [Example 25]

IC50 [1, 6]: 21.9 µM
Structure (SMILES): N=C(N)c1ccc(NCCCCCCNc2ccc(C(=N)N)cc2N)c(N)c1 [Example 26]

IC50 [1, 8]: 106 µM
Structure (SMILES): N=C(N)c1cccc(OCCCCOc2cccc(C(=N)N)c2)c1 [Example 28]

IC50 [1, 8]: 55.8 µM
Structure (SMILES): N=C(N)c1cccc(OCCCCCOc2cccc(C(=N)N)c2)c1 [Example 29]

IC50 [1, 8]: 84.2 µM
Structure (SMILES): N=C(N)c1cccc(OCCCCCCOc2cccc(C(=N)N)c2)c1 [Example 30]

IC50 [1, 9]: 26 µM
Structure (SMILES): c1cc(C2=NCCN2)ccc1OCCCCOc1ccc(C2=NCCN2)cc1 [Example 32]

IC50 [1, 9]: 346 µM
Structure (SMILES): CN1CCN=C1c1ccc(OCCCCOc2ccc(C3=NCCN3C)cc2)cc1 [Example 33]

Source: patent US4963589A, “Methods for treating Giardia lamblia” (The University of North Carolina at Chapel Hill, priority 1988, dated 1990)
